According to US20190137505A1 (THE ARIZONA BOARD OF REGENTS ON BEHALF OF THE UNIVERSITY OF …, priority 2015, published 2019):

Assay: LC-MS/MS MRM quantitation of metformin-MG imidazolinone and metformin in human urine
Assay type: in vivo
Protocol: An Agilent (Palo Alto, Calif.) 1260 liquid chromatograph was utilized for achieving gradient separation using an Agilent ZORBAX Hilic Plus (2.1×50 mm) column with a 1.8 μm packing size held at 30° C. throughout the separation. A 5 μL injection of urine diluted 1:200 in Milli-Q water and snap filtered ([…] eXtreme® Filter Vial 0.2 um PVDF; Thomson, Oceanside, Calif.) was used for all samples. A binary gradient consisting of 15 mM ammonium acetate in water (A) and acetonitrile (B) at a flow rate of 300 μL/min was used. […] After this, a linear gradient was maintained to achieve 35% B at 9 min which was held for another minute. At 10 min, another linear change was applied to get to the initial condition of 95% B at 11 min. A post-time of three min was used to re-equilibriate the column before the next analysis. The total analysis time was 14 min per sample. Mass spectrometry was performed using an Agilent 6490 triple-quadrupole mass spectrometer with an electrospray ionization (ESI) source. […] After this was determined, the mass spectrometer was operated in product ion scan mode and the most abundant product ions were selected. […] Once the product ions were determined, the collision energy (CE) and cell accelerator voltage (CAV) were optimized for each transition. […]

CC1NC(/N=C(\N)N(C)C)=NC1=O (centres unmarked) [IMZ, (E)-1,1-dimethyl-2-(5-methyl-4-oxo-4,5-dihydro-1H-imidazol-2-yl)guanidine]
IMZ in urine of MF-treated T2DM patients (all MF-treated T2DM patients): detected
Levels of the MF-MG adduct detectable in urine (human diabetic subjects on MF treatment): up to 4.32 μM/specific gravity
